Laboratory results taken from US7960406B2, “Diketo substituted pyrrolo[2,3-c] pyridines” (priority 2008, dated 2011).
pEC50: −log10 of the molar value.

What follows are compounds tested on HIV-1 single-round infectious reporter virus (assay: Single-round infectious HIV-1 luciferase reporter virus infection of HeLa CD4 cells). Details: Human immunodeficiency virus 1, HeLa, 72 h.
Assay type: cell-based
Experimental: • Virus production—Human embryonic Kidney cell line, 293T, was propagated in Dulbecco's Modified Eagle Medium (Invitrogen, Carlsbad, Calif.) containing 10% fetal Bovine serum (FBS, Sigma, St. Louis, Mo.). • Virus infection—Human epithelial cell line, HeLa, expressing the HIV-1 receptor CD4 was propagated in Dulbecco's Modified Eagle Medium (Invitrogen, Carlsbad, Calif.) containing 10% fetal Bovine serum (FBS, Sigma, St. Louis, Mo.) and supplemented with 0.2 mg/mL GENETICIN® (Invitrogen, Carlsbad, Calif.). • Virus—Single-round infectious reporter virus was produced by co-transfecting human embryonic Kidney 293 cells with an HIV-1 envelope DNA expression vector and a proviral cDNA containing an envelope deletion mutation and the luciferase reporter gene inserted in place of HIV-1 nef sequences (Chen et al., Ref. 41). Transfections were performed using Lipofectamine Plus reagent as described by the manufacturer (Invitrogen, Carlsbad, Calif.). Experimental Procedure:
1. HeLa CD4 cells were plated in 96 well plates at a cell density of 1×10^4 cells per well in 100 μl Dulbecco's Modified Eagle Medium containing 10% fetal Bovine serum and incubated overnight.
2. Compound was added in a 2 μl dimethylsulfoxide solution, so that the final assay concentration would be ≦10 μM.
3. 100 μl of single-round infectious reporter virus in Dulbecco's Modified Eagle Medium was then added to the plated cells and compound at an approximate multiplicity of infection (MOI) of 0.01, resulting in a final volume of 200 μl per well.
4. Virally-infected cells were incubated at 37° C., in a CO2 incubator, and harvested 72 h after infection.
5. Viral infection was monitored by measuring luciferase expression from viral DNA in the infected cells using a luciferase reporter gene assay kit, as described by the manufacturer (Roche Molecular Biochemicals, Indianapolis, Ind.). Infected cell supernatants were removed and 50 μl of lysis buffer was added per well. After 15 minutes, 50 μl of freshly-reconstituted luciferase assay reagent was added per well. Luciferase activity was then quantified by measuring luminescence using a Wallac MICROBETA® scintillation counter.
6. The percent inhibition for each compound was calculated by quantifying the level of luciferase expression in cells infected in the presence of each compound as a percentage of that observed for cells infected in the absence of compound and subtracting such a determined value from 100.
7. An EC50 provides a method for comparing the antiviral potency of the compounds of this disclosure. The effective concentration for fifty percent inhibition (EC50) was calculated with the Microsoft Excel Xlfit curve fitting software. For each compound, curves were generated from percent inhibition calculated at 10 different concentrations by using a four parameter logistic model (model 205). Table 1 is the key for the data in Table 2.

| Structure (SMILES) | pEC50 |
| --- | --- |
| O=C(C(=O)N1CCn2c(nnc2-c2ccccc2)C1)c1c[nH]c2cccc(F)c12 [Compound A1] | 6.66 |
| COc1cnc(-n2cnc(C)n2)c2[nH]cc(C(=O)C(=O)N3CCn4c(nnc4-c4ccccc4)C3)c12 [Compound B1] | 9.02 |
| COc1cnc(-n2cnc(C)n2)c2[nH]cc(C(=O)C(=O)N3CCn4c(nnc4-c4ccccc4C)C3)c12 [Compound C1] | 7.93 |
| COc1cnc(-n2cnc(C)n2)c2[nH]cc(C(=O)C(=O)N3CCn4c(nnc4-c4ccccc4F)C3)c12 [Compound C2] | 9.54 |
| COc1cnc(-n2cnc(C)n2)c2[nH]cc(C(=O)C(=O)N3CCn4c(nnc4-c4ccccc4C(N)=O)C3)c12 [Compound C4] | < 6.30 |
| COc1cnc(-n2cnc(C)n2)c2[nH]cc(C(=O)C(=O)N3CCn4c(nnc4-c4ccccc4O)C3)c12 [Compound C7] | 8.72 |
| COc1cnc(-n2ccnn2)c2[nH]cc(C(=O)C(=O)N3CCn4c(-c5ccccc5)cnc4C3)c12 [Compound D2] | 10.30 |
| COc1cnc(-n2cnc(C)n2)c2[nH]cc(C(=O)C(=O)N3CCn4c(-c5ccccc5C#N)cnc4C3)c12 [Compound F5] | 7.00 |
| COc1cnc(-n2cnc(C)n2)c2[nH]cc(C(=O)C(=O)N3CCn4c(-c5ccncc5)cnc4C3)c12 [Compound F6] | 7.87 |
| COc1cnc(-n2cnc(C)n2)c2[nH]cc(C(=O)C(=O)N3CCn4c(nc(C)c4-c4ccccn4)C3)c12 [Compound H2] | 9.00 |
| COc1cnc(-n2cnc(C)n2)c2[nH]cc(C(=O)C(=O)N3CCn4c(nc(C(F)(F)F)c4-c4ccccn4)C3)c12 [Compound I3] | 9.23 |
| COc1cnc(-c2cc(CO)[nH]n2)c2[nH]cc(C(=O)C(=O)N3CCn4c(-c5ccccc5)cnc4C3)c12 [Compound J1] | 10.30 |
| COc1cnc(-n2cnc(C)n2)c2[nH]cc(C(=O)C(=O)N3CCc4c(c(-c5ccccc5)nn4-c4ccccc4)C3)c12 [Compound K1] | 8.59 |
| COc1cnc(-n2cnc(C)n2)c2[nH]cc(C(=O)C(=O)N3CCc4c(cnn4-c4cc(C)nc(C)n4)C3)c12 [Compound L2] | 6.48 |
| COc1cnc(-n2cnc(C)n2)c2[nH]cc(C(=O)C(=O)N3CCc4c(cnn4-c4ccccc4)C3)c12 [Compound L3] | 10.52 |
| COc1cnc(-n2cnc(C)n2)c2[nH]cc(C(=O)C(=O)N3CCc4c(ncn4-c4ccccc4)C3)c12 [Compound M1] | 10.15 |
| COc1cnc(-n2cnc(C)n2)c2[nH]cc(C(=O)C(=O)N3CCn4c(cnc4-c4ccccc4)C3)c12 [Compound N1] | 10.22 |
| O=C(C(=O)N1CCN2C(c3ccccc3)=NCC2C1)c1c[nH]c2c(-n3ccnn3)ncc(F)c12 (stereo not drawn) [Compound O1] | 7.89 |

Same assay, conditions: Human immunodeficiency virus 1, HeLa, 72 h, read-out: EC50 Group from Table 1

| Structure (SMILES) | pEC50 |
| --- | --- |
| COc1cnc(-n2ccnn2)c2[nH]cc(C(=O)C(=O)N3CCn4c(nnc4-c4ccccc4)C3)c12 [Compound B2] | > 6.30 |
| O=C(C(=O)N1CCn2c(nnc2-c2ccccc2)C1)c1c[nH]c2c(-n3ccnn3)ncc(F)c12 [Compound B3] | > 6.30 |
| COCc1ncn(-c2ncc(OC)c3c(C(=O)C(=O)N4CCn5c(nnc5-c5ccccc5)C4)c[nH]c23)n1 [Compound B4] | > 6.30 |
| COc1cnc(-n2cnc(C)n2)c2[nH]cc(C(=O)C(=O)N3CCn4c(nnc4-c4ccccn4)C3)c12 [Compound C3] | > 6.30 |
| COc1ccccc1-c1nnc2n1CCN(C(=O)C(=O)c1c[nH]c3c(-n4cnc(C)n4)ncc(OC)c13)C2 [Compound C5] | > 6.30 |
| COc1cnc(-n2cnc(C)n2)c2[nH]cc(C(=O)C(=O)N3CCn4c(nnc4-c4ccccc4Cl)C3)c12 [Compound C6] | > 6.30 |
| COc1cnc(-n2cnc(C)n2)c2[nH]cc(C(=O)C(=O)N3CCn4c(nnc4-c4cccc(C)c4)C3)c12 [Compound C8] | > 6.30 |
| COc1cnc(-n2cnc(C)n2)c2[nH]cc(C(=O)C(=O)N3CCn4c(-c5ccccc5)cnc4C3)c12 [Compound D1] | > 6.30 |
| COc1cnc(-c2cncnc2)c2[nH]cc(C(=O)C(=O)N3CCn4c(-c5ccccc5)cnc4C3)c12 [Compound D3] | > 6.30 |
| COc1cnc(-n2cnc(C)n2)c2[nH]cc(C(=O)C(=O)N3CCn4c(-c5ccccn5)cnc4C3)c12 [Compound E1] | > 6.30 |
| COc1cnc(-n2cnc(C)n2)c2[nH]cc(C(=O)C(=O)N3CCn4c(-c5cccc(O)c5)cnc4C3)c12 [Compound F1] | > 6.30 |
| COc1cnc(-n2cnc(C)n2)c2[nH]cc(C(=O)C(=O)N3CCn4c(-c5cccnc5)cnc4C3)c12 [Compound F2] | > 6.30 |
| COc1cnc(-n2cnc(C)n2)c2[nH]cc(C(=O)C(=O)N3CCn4c(-c5ccc(O)cc5)cnc4C3)c12 [Compound F3] | > 6.30 |
| COc1ccc(-c2cnc3n2CCN(C(=O)C(=O)c2c[nH]c4c(-n5cnc(C)n5)ncc(OC)c24)C3)cn1 [Compound F4] | > 6.30 |
| COc1cnc(-n2cnc(C)n2)c2[nH]cc(C(=O)C(=O)N3CCn4c(nc(Cl)c4-c4ccccc4)C3)c12 [Compound G1] | > 6.30 |
| COc1cnc(-n2cnc(C)n2)c2[nH]cc(C(=O)C(=O)N3CCn4c(nc(Br)c4-c4ccccc4)C3)c12 [Compound G2] | > 6.30 |
| COc1nc2n(c1-c1ccccc1)CCN(C(=O)C(=O)c1c[nH]c3c(-n4cnc(C)n4)ncc(OC)c13)C2 [Compound H1a] | > 6.30 |
| COc1nc2n(c1-c1ccccn1)CCN(C(=O)C(=O)c1c[nH]c3c(-n4cnc(C)n4)ncc(OC)c13)C2 [Compound H1b] | > 6.30 |
| COc1cnc(-n2cnc(C)n2)c2[nH]cc(C(=O)C(=O)N3CCn4c(nc(C(F)(F)F)c4-c4ccccc4)C3)c12 [Compound I1] | > 6.30 |
| O=C(C(=O)N1CCn2c(nc(C(F)(F)F)c2-c2ccccc2)C1)c1c[nH]c2c(-n3ccnn3)ncc(F)c12 [Compound I2] | > 6.30 |
| COc1cnc(-c2cc(C(C)(C)O)[nH]n2)c2[nH]cc(C(=O)C(=O)N3CCn4c(-c5ccccc5)cnc4C3)c12 [Compound J2] | > 6.30 |
| COc1cnc(-n2cnc(C)n2)c2[nH]cc(C(=O)C(=O)N3CCc4c(cnn4-c4ncccn4)C3)c12 [Compound L1] | > 6.30 |
| COc1cnc(-n2cnc(C)n2)c2[nH]cc(C(=O)C(=O)N3CCc4c(cnn4-c4ccccn4)C3)c12 [Compound L4] | > 6.30 |
| COc1cnc(-n2cnc(C)n2)c2[nH]cc(C(=O)C(=O)N3CCc4c(cnn4-c4cnccn4)C3)c12 [Compound L5] | > 6.30 |
| COc1cnc(-n2cnc(C)n2)c2[nH]cc(C(=O)C(=O)N3CCc4c(ncn4-c4ccccn4)C3)c12 [Compound M2] | > 6.30 |
| COc1cnc(-n2cnc(C)n2)c2[nH]cc(C(=O)C(=O)N3CCn4c(cnc4-c4ccc(F)cc4F)C3)c12 [Compound N2] | > 6.30 |
| COc1cnc(-n2cnc(C)n2)c2[nH]cc(C(=O)C(=O)N3CCN4C(c5ccccn5)=NCC4C3)c12 (stereo not drawn) [Compound O2] | > 6.30 |
